The results in this text go back to patent US20150246898A1, “METALLOENZYME INHIBITOR COMPOUNDS” (DOW AGROSCIENCES LLC, priority 2012, published 2015).

In brackets after ≈: the same amount, converted by molar mass.

The subject of test [1] is Puccinia recondita tritici = Puccinia triticina (PUCCRT). Put plainly: Fungicidal activity vs. leaf rust on wheat plants (1-day protectant spray). In kind it is in vivo. As to conditions: wheat (variety Yuma) sprayed at 50 ppm, inoculated next day, disease severity evaluated 7-9 days later, read-out: Puccinia Rating (% Disease Control @ 50 ppm). An excerpt:
Each pot contained 3-8 seedlings. These plants were sprayed until wet with the formulated test compounds. The compounds were formulated at 50 ppm in 10 vol. % acetone plus 90 vol. % Triton X water (deionized water 99.99 wt %+0.01 wt % Triton X100), giving a “formulated test compound.” Formulated test compounds were applied to plants using a turn table sprayer fitted with two opposing air atomization nozzles which delivered approximately 1500 L/ha of spray volume. On the following day, the leaves were inoculated with an aqueous spore suspension of Puccinia recondita tritici and the plants were kept in high humidity overnight to permit spores to germinate and infect the leaf. The plants were then transferred to a greenhouse until disease developed on untreated control plants. Disease severity was evaluated 7-9 days later, depending on the speed of disease development. In each case of Table 3, the Puccinia rating scale is as follows: […]

The subject of test [2] is Septoria tritici (ATCC 26517). Put plainly: Minimum Inhibitory Concentration (MIC) vs. Septoria tritici, CLSI-based microdilution. The note with it: Zymoseptoria tritici, ATCC26517, 168 h; MIC = 50% reduction in growth of S. tritici, 7 days at 22 °C, RPMI/MOPS, 1% DMSO; read-out: Septoria Rating (MIC). In kind it is cell-based. The procedure:
Compounds of the present disclosure were assessed for their ability to inhibit the growth of a common strain of the fungal plant pathogen Septoria tritici (ATCC 26517) using a procedure based on a Clinical and Laboratory Standards Institute (CLSI) microdilution assay protocol for filamentous fungi. Stock solutions of the test compounds and standards were prepared in DMSO at 6400 μg/mL. Each stock solution was used to prepare a 2-fold dilution series ranging from 16 to 0.016 μg/mL (total of 11 compound concentrations) in RPMI-1640 (Roswell Park Memorial Institute) medium containing 3-(N-morpholino)propanesulfonic acid (MOPS) buffer and 2% DMSO. A 100 μL aliquot of the dilutions was added to columns 1 (16 μg/mL compound) through 11 (0.016 μg/mL compound) of a 96-well microtiter plate. This format was replicated in a second row of the microtiter plate. Thus, each microtiter plate could include 11 concentrations of four test or control compounds replicated twice. A 100 μL aliquot of RPMI-1640/MOPS/2% DMSO medium was added to column 12 (no compound control) of the microtiter plate. A fresh culture of S. tritici was used to prepare a solution of approximately 5×10^4 colony-forming units per milliliter (cfu/mL) in RPMI/MOPS medium without DMSO. A 100 μL aliquot of this solution was added to all 96 wells in the microtiter plate. […] In each case of Table 3 the Septoria rating scale is as follows: […]

The MIC is the smallest concentration in the dilution series that meets the test's criterion for growth inhibition. For `OC(c1cncnc1)(c1ccc(F)cc1F)C(F)(F)c1ccc(-c2ccc(OC(F)(F)F)cc2)cn1` (racemic) [Example 3, 1-(2,4-difluorophenyl)-2,2-difluoro-1-(pyrimidin-5-yl)-2-(5-(4-(trifluoromethoxy)phenyl)pyridin-2-yl)ethanol], in test [1], the pest or weed control at 50 ppm was under 40%. In addition, in test [2], the MIC was 0.5 to 1.5 µg/mL (≈ 0.982 to 2.94 µM).

For the compound `N#Cc1ccc(C#Cc2ccc(C(F)(F)C(O)(c3cncnc3)c3ccc(F)cc3F)nc2)cc1` (racemic) [Example 5, 4-((6-(2-(2,4-difluorophenyl)-1,1-difluoro-2-hydroxy-2-(pyrimidin-5-yl)ethyl)pyridin-3-yl)ethynyl)benzonitrile], the pest or weed control at 50 ppm in test [1] lay in the range of 80 to 100%. Moreover, the MIC in test [2] was at most 0.5 µg/mL.

As to `CNc1ccc(C#Cc2ccc(C(F)(F)C(O)(c3cncnc3)c3ccc(F)cc3F)nc2)cc1` (racemic) [Example 7, 1-(2,4-difluorophenyl)-2,2-difluoro-2-(5-((4-(methylamino)phenyl)ethynyl)pyridin-2-yl)-1-(pyrimidin-5-yl)ethanol], the pest or weed control at 50 ppm in test [1] is under 40%. Moreover, the MIC in test [2] is at most 0.5 µg/mL.

In the case of `OCC#Cc1ccc(C(F)(F)C(O)(c2cncnc2)c2ccc(F)cc2F)nc1` (racemic) [Example 8, 3-(6-(2-(2,4-difluorophenyl)-1,1-difluoro-2-hydroxy-2-(pyrimidin-5-yl)ethyl)pyridin-3-yl)prop-2-yn-1-ol], the pest or weed control at 50 ppm in test [1] is 80 to 100%. Further, in test [2], the MIC is 0.5 to 1.5 µg/mL (≈ 1.24 to 3.72 µM).

For the compound `OC(c1cncnc1)(c1ccc(F)cc1F)C(F)(F)c1ccc(OCc2ccc(Cl)cc2F)cn1` (racemic) [Example 10], the pest or weed control at 50 ppm in test [1] was 80 to 100%. Also, the MIC in test [2] is at most 0.5 µg/mL.

With `N#Cc1ccc(C#Cc2ccc(C(F)(F)C(O)(c3cncnc3)c3ccc(F)cc3F)nc2)cc1F` (racemic) [Example 11], the pest or weed control at 50 ppm in test [1] was in the range of 80 to 100%. In test [2], the MIC was at most 0.5 µg/mL.

`N#Cc1ccc(C#Cc2ccc(C(F)(F)C(O)(c3cncnc3)c3ccc(F)cc3F)nc2)c(F)c1` (racemic) [Example 12, 4-((6-(2-(2,4-Difluorophenyl)-1,1-difluoro-2-hydroxy-2-(pyrimidin-5-yl)ethyl)pyridin-3-yl)ethynyl)-3-fluorobenzonitrile]: the pest or weed control at 50 ppm in test [1] was in the range of 80 to 100%. Also, the MIC in test [2] was at most 0.5 µg/mL.

Take `OC(c1cncnc1)(c1ccc(F)cc1F)C(F)(F)c1ccc(C#Cc2ccc(Cl)cc2)cn1` (racemic) [Example 13]: in test [1], the pest or weed control at 50 ppm was in the range of 80 to 100%. In addition, the MIC in test [2] is at most 0.5 µg/mL.

As for `OC(c1cncnc1)(c1ccc(F)cc1F)C(F)(F)c1ccc(C#Cc2ccc(OC(F)(F)F)cc2)cn1` (racemic) [Example 14], in test [1], the pest or weed control at 50 ppm lay in the range of 80 to 100%. In addition, the MIC in test [2] was at most 0.5 µg/mL.

For the compound `COc1ccc(C#Cc2ccc(C(F)(F)C(O)(c3cncnc3)c3ccc(F)cc3F)nc2)cc1` (racemic) [Example 15], the pest or weed control at 50 ppm in test [1] lay in the range of 60 to 79%. Moreover, in test [2], the MIC is at most 0.5 µg/mL.

In the case of `O=[N+]([O-])c1ccc(C#Cc2ccc(C(F)(F)C(O)(c3cncnc3)c3ccc(F)cc3F)nc2)cc1` (racemic) [Example 16, 1-(2,4-Difluorophenyl)-2,2-difluoro-2-(5-((4-nitrophenyl)ethynyl)pyridin-2-yl)-1-(pyrimidin-5-yl)ethanol], the pest or weed control at 50 ppm in test [1] fell in the range of 60 to 79%. The MIC in test [2] is at most 0.5 µg/mL.

In the case of `N#Cc1cccc(C#Cc2ccc(C(F)(F)C(O)(c3cncnc3)c3ccc(F)cc3F)nc2)c1` (racemic) [Example 18, 3-((6-(2-(2,4-Difluorophenyl)-1,1-difluoro-2-hydroxy-2-(pyrimidin-5-yl)ethyl)pyridin-3-yl)ethynyl)benzonitrile], the pest or weed control at 50 ppm in test [1] is 80 to 100%. For the same compound, the MIC in test [2] was at most 0.5 µg/mL.

As to `Nc1ccc(C#Cc2ccc(C(F)(F)C(O)(c3cncnc3)c3ccc(F)cc3F)nc2)cc1` (racemic) [Example 20, 2-(5-((4-Aminophenyl)ethynyl)pyridin-2-yl)-1-(2,4-difluorophenyl)-2,2-difluoro-1-(pyrimidin-5-yl)ethanol], in test [1], the pest or weed control at 50 ppm lay within 60 to 79%. In addition, in test [2], the minimum inhibitory concentration (MIC) is at most 0.5 µg/mL.

Turning to `OC(c1cncnc1)(c1ccc(F)cc1F)C(F)(F)c1ccc(C#Cc2ccc(OC(F)F)cc2)cn1` (racemic) [Example 21, 2-(5-((4-(Difluoromethoxy)phenyl)ethynyl)pyridin-2-yl)-1-(2,4-difluorophenyl)-2,2-difluoro-1-(pyrimidin-5-yl)ethanol], the pest or weed control at 50 ppm in test [1] was in the range of 80 to 100%. For the same compound, in test [2], the MIC was at most 0.5 µg/mL.

Consider `OC(c1cnccn1)(c1ccc(F)cc1F)C(F)(F)c1ccc(C#Cc2ccc(F)cc2)cn1` (racemic) [Example 25], for which, in test [1], the pest or weed control at 50 ppm was under 40%.

For the compound `OC(c1nc[nH]n1)(c1ccc(F)cc1F)C(F)(F)c1ccc(C#Cc2ccc(F)cc2)cn1` (racemic) [Example 27], in test [1], the pest or weed control at 50 ppm is under 40%. Also, the MIC in test [2] was over 4 µg/mL.

In the case of `OC(c1cncnc1)(c1ccc(F)cc1F)C(F)(F)c1ccc(OCC(F)(F)F)cn1` (racemic) [Example 34], the pest or weed control at 50 ppm in test [1] was in the range of 80 to 100%. In test [2], the MIC lay within 0.5 to 1.5 µg/mL (≈ 1.12 to 3.35 µM).

Consider `CC(C)C(O)(c1cncnc1)C(F)(F)c1ccc(C#Cc2ccc(C#N)cc2)cn1` (racemic) [Example 35], for which the pest or weed control at 50 ppm in test [1] is under 40%. For the same compound, the MIC in test [2] lay within 0.5 to 1.5 µg/mL (≈ 1.24 to 3.71 µM).

`N#Cc1ccc(C#Cc2ccc(C(F)(F)C(O)(c3cncnc3)c3ccc(F)cc3F)nc2)s1` (racemic) [Example 37]: the pest or weed control at 50 ppm in test [1] lay within 60 to 79%. Also, in test [2], the MIC is at most 0.5 µg/mL.

Regarding `O=C(Nc1ccc(C#Cc2ccc(C(F)(F)C(O)(c3cncnc3)c3ccc(F)cc3F)nc2)cc1)C(F)(F)F` (racemic) [Example 38], the pest or weed control at 50 ppm in test [1] is under 40%. In test [2], the MIC was in the range of 0.5 to 1.5 µg/mL (≈ 0.892 to 2.68 µM).

Take `N#Cc1ccc(COc2ccc(C(F)(F)C(O)(c3cncnc3)c3ccc(F)cc3F)nc2)cc1` (racemic) [Example 56]: the minimal inhibitory concentration (MIC) in test [2] lay within 0.5 to 1.5 µg/mL (≈ 1.04 to 3.12 µM).

As for `CC(C)C(O)(c1cncnc1)C(F)(F)c1ccc(OCc2ccc(C#N)cc2)cn1` (racemic) [Example 57], in test [2], the minimum inhibitory concentration (MIC) is over 4 µg/mL.

As to `O=[N+]([O-])c1ccc(COc2ccc(C(F)(F)C(O)(c3cncnc3)c3ccc(F)cc3F)nc2)cc1` (racemic) [Example 58], the MIC in test [2] is 1.5 to 4 µg/mL (≈ 3 to 7.99 µM).

Consider `OC(c1cncnc1)(c1ccc(F)cc1F)C(F)(F)c1ccc(OCc2cccc(Cl)c2)cn1` (racemic) [Example 59], for which the MIC in test [2] was 0.5 to 1.5 µg/mL (≈ 1.02 to 3.06 µM).

Consider `CC(C)C(O)(c1cncnc1)C(F)(F)c1ccc(C#Cc2ccc(F)cc2)cn1` (racemic) [Example 63], for which, in test [2], the MIC is 0.5 to 1.5 µg/mL (≈ 1.26 to 3.77 µM).

As to `N#Cc1cccc(C#Cc2ccc(C(F)(F)C(O)(c3ccc(Cl)cc3)c3cncnc3)nc2)c1` (racemic) [Example 66], in test [2], the MIC lay within 0.5 to 1.5 µg/mL (≈ 1.06 to 3.17 µM).

Take `N#Cc1ccc(COc2ccc(C(F)(F)C(O)(c3cncnc3)c3ccc(F)cc3F)nc2)c(F)c1` (racemic) [Example 68]: the pest or weed control at 50 ppm in test [1] lay in the range of 80 to 100%.

For the compound `OC(c1cncnc1)(C(F)(F)F)C(F)(F)c1ccc(-c2ccc(Cl)cc2)cn1` (racemic) [Example 71, 1-(5-(4-Chlorophenyl)pyridin-2-yl)-1,1,3,3,3-pentafluoro-2-(pyrimidin-5-yl)propan-2-ol], in test [2], the minimum inhibitory concentration (MIC) is at most 0.5 µg/mL.

Regarding `OC(c1ccc(Cl)cc1)(c1cncnc1)C(F)(F)c1ccc(Oc2cccc(Cl)c2)cn1` (stereo not shown) [Example 61], the MIC in test [2] was 1.5 to 4 µg/mL (≈ 3.16 to 8.43 µM).

Take `OC(c1ccc(Cl)cc1)(c1cncnc1)C(F)(F)c1ccc(OCc2ccc(Cl)cc2)cn1` (stereo not shown) [Example 69]: the pest or weed control at 50 ppm in test [1] is under 40%.
